Where two headings read alike, the source gives them in different places.
Assays:
Experiment in all cases: MTT assay, pancreatic cancer cell line
Type in all cases: cell-based, human
Conditions in all cases: 72 h
[1] = tested on: BxPC3
[2] = tested on: Mia-PaCa2
[3] = tested on: AsPC1
[4] = tested on: HPAC
[5] = tested on: PANC1

Compound `[NH2][Pt]([NH2])([Cl])[Cl]` [CDDP, cisplatin] has an IC50 ([1]; BxPC3, NSC-30049 0 μM, 0.025 μM dFdC, read-out: IC50 of CDDP) of 2020 ± 350 nM, an IC50 ([1]; BxPC3, NSC-30049 0 μM, no dFdC, read-out: IC50 of CDDP) of 1960 ± 80 nM and an IC50 ([1]; BxPC3, NSC-30049 0.5 μM, 0.025 μM dFdC, read-out: IC50 of CDDP) of 940 ± 60 nM. The IC50 ([1]; BxPC3, NSC-30049 0.5 μM, no dFdC, read-out: IC50 of CDDP) was 1530 ± 90 nM, the IC50 ([1]; BxPC3, NSC-30049 1.0 μM, 0.025 μM dFdC, read-out: IC50 of CDDP) was 540 ± 60 nM and the IC50 ([1]; BxPC3, NSC-30049 1.0 μM, no dFdC, read-out: IC50 of CDDP) was 1380 ± 40 nM. For the same compound, the IC50 ([1]; BxPC3, NSC-30049 2.5 μM, 0.025 μM dFdC, read-out: IC50 of CDDP) was 40 ± 1 nM, the IC50 ([1]; BxPC3, NSC-30049 2.5 μM, no dFdC, read-out: IC50 of CDDP) was 260 ± 70 nM and the IC50 ([2]; Mia-PaCa2, NSC-30049 0 μM, 1 μM dFdC, read-out: IC50 of CDDP) was 22200 ± 1150 nM. The IC50 ([2]; Mia-PaCa2, NSC-30049 0 μM, no dFdC, read-out: IC50 of CDDP) was 22300 ± 1100 nM, the IC50 ([2]; Mia-PaCa2, NSC-30049 0.5 μM, 1 μM dFdC, read-out: IC50 of CDDP) was 90 nM and the IC50 ([2]; Mia-PaCa2, NSC-30049 0.5 μM, no dFdC, read-out: IC50 of CDDP) was 14300 ± 490 nM. It also gave an IC50 ([2]; Mia-PaCa2, NSC-30049 1.0 μM, 1 μM dFdC, read-out: IC50 of CDDP) of 70 nM, an IC50 ([2]; Mia-PaCa2, NSC-30049 1.0 μM, no dFdC, read-out: IC50 of CDDP) of 13400 ± 1330 nM and an IC50 ([2]; Mia-PaCa2, NSC-30049 2.5 μM, 1 μM dFdC, read-out: IC50 of CDDP) of 70 nM. The IC50 ([2]; Mia-PaCa2, NSC-30049 2.5 μM, no dFdC, read-out: IC50 of CDDP) was 12200 ± 1120 nM, the IC50 ([3]; AsPC1, NSC-30049 0 μM, 1 μM dFdC, read-out: IC50 of CDDP) was 3190 ± 280 nM and the IC50 ([3]; AsPC1, NSC-30049 0 μM, no dFdC, read-out: IC50 of CDDP) was 3490 ± 130 nM. For the same compound, the IC50 ([3]; AsPC1, NSC-30049 0.5 μM, 1 μM dFdC, read-out: IC50 of CDDP) was 640 ± 80 nM, the IC50 ([3]; AsPC1, NSC-30049 0.5 μM, no dFdC, read-out: IC50 of CDDP) was 2200 ± 220 nM and the IC50 ([3]; AsPC1, NSC-30049 1.0 μM, 1 μM dFdC, read-out: IC50 of CDDP) was 110 ± 90 nM. For the same compound, the IC50 ([3]; AsPC1, NSC-30049 1.0 μM, no dFdC, read-out: IC50 of CDDP) was 2090 ± 190 nM, the IC50 ([3]; AsPC1, NSC-30049 2.5 μM, 1 μM dFdC, read-out: IC50 of CDDP) was 4 ± 0.1 nM and the IC50 ([3]; AsPC1, NSC-30049 2.5 μM, no dFdC, read-out: IC50 of CDDP) was 200 ± 10 nM. The IC50 ([4]; HPAC, NSC-30049 0 μM, 0.025 μM dFdC, read-out: IC50 of CDDP) was 13800 ± 5510 nM, the IC50 ([4]; HPAC, NSC-30049 0 μM, no dFdC, read-out: IC50 of CDDP) was 14100 ± 4340 nM and the IC50 ([4]; HPAC, NSC-30049 0.5 μM, 0.025 μM dFdC, read-out: IC50 of CDDP) was 20 ± 10 nM. It also gave an IC50 ([4]; HPAC, NSC-30049 0.5 μM, no dFdC, read-out: IC50 of CDDP) of 14500 ± 2470 nM, an IC50 ([4]; HPAC, NSC-30049 1.0 μM, 0.025 μM dFdC, read-out: IC50 of CDDP) of 10 ± 1 nM and an IC50 ([4]; HPAC, NSC-30049 1.0 μM, no dFdC, read-out: IC50 of CDDP) of 11600 ± 1820 nM. The IC50 ([4]; HPAC, NSC-30049 2.5 μM, 0.025 μM dFdC, read-out: IC50 of CDDP) was 10 ± 1 nM, the IC50 ([4]; HPAC, NSC-30049 2.5 μM, no dFdC, read-out: IC50 of CDDP) was 4710 ± 1240 nM and the IC50 ([5]; PANC1, NSC-30049 0 μM, 1 μM dFdC, read-out: IC50 of CDDP) was 9870 ± 800 nM. For the same compound, the IC50 ([5]; PANC1, NSC-30049 0 μM, no dFdC, read-out: IC50 of CDDP) was 9550 ± 940 nM, the IC50 ([5]; PANC1, NSC-30049 0.5 μM, 1 μM dFdC, read-out: IC50 of CDDP) was 1060 ± 390 nM and the IC50 ([5]; PANC1, NSC-30049 0.5 μM, no dFdC, read-out: IC50 of CDDP) was 9000 ± 30 nM. It also gave an IC50 ([5]; PANC1, NSC-30049 1.0 μM, 1 μM dFdC, read-out: IC50 of CDDP) of 1030 ± 360 nM, an IC50 ([5]; PANC1, NSC-30049 1.0 μM, no dFdC, read-out: IC50 of CDDP) of 7800 ± 500 nM and an IC50 ([5]; PANC1, NSC-30049 2.5 μM, 1 μM dFdC, read-out: IC50 of CDDP) of 120 ± 90 nM. It also gave an IC50 ([5]; PANC1, NSC-30049 2.5 μM, no dFdC, read-out: IC50 of CDDP) of 2040 ± 410 nM.
For `Nc1ccn([C@@H]2O[C@H](CO)[C@@H](O)C2(F)F)c(=O)n1` [dFdC, gemcitabine], the IC50 ([1]; Homo sapiens, BXPC-3, BxPC3 (dFdC-sensitive), single agent, read-out: IC50) was 70 ± 5 nM, the IC50 ([2]; Homo sapiens, MIA PaCa-2, Mia-PaCa2 (dFdC-resistant), single agent, read-out: IC50) was 11500 ± 2900 nM and the IC50 ([3]; Homo sapiens, AsPC1 (dFdC-resistant), single agent, read-out: IC50) was 1830 ± 470 nM. It also gave an IC50 ([4]; Homo sapiens, HPAC (dFdC-sensitive), single agent, read-out: IC50) of 70 ± 7 nM and an IC50 ([5]; Homo sapiens, PANC-1, PANC1 (dFdC-resistant), single agent, read-out: IC50) of 11600 ± 2930 nM.
